The values that follow come from ChEMBL document CHEMBL3098001, “Synthesis and biological evaluation of cyclopentyl-triazolol-pyrimidine (CPTP) based P2Y12 antagonists” (Bioorg Med Chem Lett, 2014).

Bounds are passed on as bounds.

Series [1] in a line: (§1) Apparent volume of distribution during terminal phase in rat at 10 mg/kg, po. It is filed as ADME, organism-based. The arrangement: dose 10 mg/kg, route oral. As to conditions: in vivo, read-out: Vz/F; call rule not given here.
The nature of series [2]: AUC in rat at 10 mg/kg, po. The format is ADME, organism-based. Further details: dose 10 mg/kg, route oral. Particulars: plasma.
The nature of series [3]: Half life in rat at 10 mg/kg, po. The format is ADME, organism-based. The arrangement: dose 10 mg/kg, route oral. As to conditions: in vivo.
A short description of series [4]: Cmax in rat at 10 mg/kg, po. It is filed as ADME, organism-based. Further details: dose 10 mg/kg, route oral. As to conditions: in vivo.
Series [5] can be described thus: Apparent oral clearance in rat at 10 mg/kg. It is filed as ADME, organism-based. Further details: dose 10 mg/kg, route oral. As to conditions: in vivo.
Series [6] concerns the target P2Y purinoceptor 12 (Rattus norvegicus) (UniProt Q9EPX4). Nature of the series: Antagonist activity at P2Y12 receptor in rat platelet-rich plasma assessed as inhibition of ADP-induced platelet aggregation at 3 uM incubated for 5 mins prior to ADP-challenge by light transmission-based assay.
A further series concerns the target Cytochrome P450 2C9 (Homo sapiens, UniProt P11712). Nature of the series: Inhibition of CYP2C9 (unknown origin). The format is ADME.
Series [7] addresses Voltage-gated inwardly rectifying potassium channel KCNH2 (Homo sapiens, UniProt Q12809). Nature of the series: Inhibition of human ERG channel at 10 uM by patch-clamp technique. For orientation: Patch clamp records ionic current or voltage across a cell membrane.
Series [8] is described as follows: Half life in dog at 1 mg/kg, po. The format is ADME, organism-based, Canis lupus familiaris. The arrangement: dose 1 mg/kg, route oral. Particulars: in vivo.
The subject of series [9] is Rattus norvegicus. Nature of the series: Inhibition of ADP-induced platelet aggregation in Sprague-Dawley rat assessed as blood loss volume at 10 mg/kg, po administered 2 hrs prior to transection measured for 30 mins (reference value: < 0.5 ml). It is filed as organism-based. Further details: dose 10 mg/kg, route oral. As to conditions: in vivo, 0.5 h.
Series [10] relates to Rattus norvegicus. Nature of the series: Inhibition of ADP-induced platelet aggregation in Sprague-Dawley rat assessed as blood loss volume at 0.625 mg/kg, po administered 2 hrs prior to transection measured for 30 mins (reference value: < 0.5 ml). The format is organism-based. Further details: dose 0.625 mg/kg, route oral. As to conditions: in vivo, 0.5 h.
Series [11] relates to Rattus norvegicus. Nature of the series: Inhibition of ADP-induced platelet aggregation in Sprague-Dawley rat assessed as bleeding time at 0.625 mg/kg, po after 2 hrs (reference value: 9.4 mins). As to conditions: in vivo. The arrangement: dose 0.625 mg/kg, route oral. It is filed as organism-based.
The nature of series [12]: Apparent volume of distribution during terminal phase in dog at 1 mg/kg, po. The format is ADME, organism-based, Canis lupus familiaris. The arrangement: dose 1 mg/kg, route oral. As to conditions: in vivo, read-out: Vz/F.
Series [13] concerns Rattus norvegicus. Nature of the series: Inhibition of ADP-induced platelet aggregation in Sprague-Dawley rat plasma at 2.5 mg/kg, po treated 2.5 hrs prior to ADP-challenge measured after 2 mins by light transmission-based assay. The format is functional.
Series [14] in a line: AUC in dog at 1 mg/kg, po. The arrangement: dose 1 mg/kg, route oral. Particulars: plasma. It is filed as ADME, organism-based, Canis lupus familiaris.
Series [15] in a line: Apparent oral clearance in dog at 1 mg/kg. Particulars: in vivo. Further details: dose 1 mg/kg, route oral. The format is ADME, organism-based, Canis lupus familiaris.
Series [16] deals with Rattus norvegicus. Nature of the series: Inhibition of ADP-induced platelet aggregation in Sprague-Dawley rat assessed as blood loss volume at 5 mg/kg, po administered 2 hrs prior to transection measured for 30 mins (reference value: < 0.5 ml). The format is organism-based. The arrangement: dose 5 mg/kg, route oral. Particulars: in vivo, 0.5 h.
Series [17] relates to Rattus norvegicus. Nature of the series: Inhibition of ADP-induced platelet aggregation in Sprague-Dawley rat assessed as blood loss volume at 2.5 mg/kg, po administered 2 hrs prior to transection measured for 30 mins (reference value: < 0.5 ml). The format is organism-based. As to conditions: in vivo, 0.5 h. The arrangement: dose 2.5 mg/kg, route oral.
The subject of series [18] is Rattus norvegicus. Nature of the series: Inhibition of ADP-induced platelet aggregation in Sprague-Dawley rat assessed as blood loss volume at 1.25 mg/kg, po administered 2 hrs prior to transection measured for 30 mins (reference value: < 0.5 ml). As to conditions: in vivo, 0.5 h. It is filed as organism-based. Further details: dose 1.25 mg/kg, route oral.
For series [19], the system named is Rattus norvegicus. Nature of the series: Inhibition of ADP-induced platelet aggregation in Sprague-Dawley rat assessed as bleeding time at 2.5 mg/kg, po after 2 hrs (reference value: 9.4 mins). Particulars: in vivo. The arrangement: dose 2.5 mg/kg, route oral. It is filed as organism-based.
Series [20] is described as follows: Inhibition of CYP450 (unknown origin) at 30 uM. The format is ADME. Particulars: human.
Series [21] can be described thus: Cmax in dog at 1 mg/kg, po. It is filed as ADME, organism-based, Canis lupus familiaris. The arrangement: dose 1 mg/kg, route oral. As to conditions: in vivo.
Series [22] deals with Rattus norvegicus. Nature of the series: Inhibition of ADP-induced platelet aggregation in Sprague-Dawley rat assessed as bleeding time at 5 mg/kg, po after 2 hrs (reference value: 9.4 mins). The arrangement: dose 5 mg/kg, route oral. As to conditions: in vivo. The format is organism-based.
In series [23] the test system is Rattus norvegicus. Nature of the series: Inhibition of ADP-induced platelet aggregation in Sprague-Dawley rat assessed as bleeding time at 1.25 mg/kg, po after 2 hrs (reference value: 9.4 mins). The format is organism-based. The arrangement: dose 1.25 mg/kg, route oral. As to conditions: in vivo.
In series [24] the test system is Rattus norvegicus. Nature of the series: Inhibition of ADP-induced platelet aggregation in Sprague-Dawley rat assessed as bleeding time at 10 mg/kg, po after 2 hrs (reference value: 9.4 mins). The format is organism-based. The arrangement: dose 10 mg/kg, route oral. As to conditions: in vivo.
The test system of series [25] is Rattus norvegicus. Described as §1. It is filed as ADME, organism-based. Further details: dose 10 mg/kg, route oral. As to conditions: in vivo.

Chain of P2Y purinoceptor 12 (Rattus norvegicus) (Q9EPX4 whole entry): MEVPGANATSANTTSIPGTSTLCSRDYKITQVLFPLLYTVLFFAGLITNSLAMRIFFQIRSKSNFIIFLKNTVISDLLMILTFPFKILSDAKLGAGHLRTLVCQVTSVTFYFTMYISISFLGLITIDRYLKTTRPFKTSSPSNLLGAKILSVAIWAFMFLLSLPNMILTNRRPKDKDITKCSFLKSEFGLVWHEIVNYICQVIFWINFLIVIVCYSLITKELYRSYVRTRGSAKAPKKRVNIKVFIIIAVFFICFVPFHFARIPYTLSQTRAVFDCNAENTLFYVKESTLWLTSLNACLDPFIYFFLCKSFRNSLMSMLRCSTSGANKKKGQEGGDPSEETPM
Chain of Voltage-gated inwardly rectifying potassium channel KCNH2 (Q12809 whole entry): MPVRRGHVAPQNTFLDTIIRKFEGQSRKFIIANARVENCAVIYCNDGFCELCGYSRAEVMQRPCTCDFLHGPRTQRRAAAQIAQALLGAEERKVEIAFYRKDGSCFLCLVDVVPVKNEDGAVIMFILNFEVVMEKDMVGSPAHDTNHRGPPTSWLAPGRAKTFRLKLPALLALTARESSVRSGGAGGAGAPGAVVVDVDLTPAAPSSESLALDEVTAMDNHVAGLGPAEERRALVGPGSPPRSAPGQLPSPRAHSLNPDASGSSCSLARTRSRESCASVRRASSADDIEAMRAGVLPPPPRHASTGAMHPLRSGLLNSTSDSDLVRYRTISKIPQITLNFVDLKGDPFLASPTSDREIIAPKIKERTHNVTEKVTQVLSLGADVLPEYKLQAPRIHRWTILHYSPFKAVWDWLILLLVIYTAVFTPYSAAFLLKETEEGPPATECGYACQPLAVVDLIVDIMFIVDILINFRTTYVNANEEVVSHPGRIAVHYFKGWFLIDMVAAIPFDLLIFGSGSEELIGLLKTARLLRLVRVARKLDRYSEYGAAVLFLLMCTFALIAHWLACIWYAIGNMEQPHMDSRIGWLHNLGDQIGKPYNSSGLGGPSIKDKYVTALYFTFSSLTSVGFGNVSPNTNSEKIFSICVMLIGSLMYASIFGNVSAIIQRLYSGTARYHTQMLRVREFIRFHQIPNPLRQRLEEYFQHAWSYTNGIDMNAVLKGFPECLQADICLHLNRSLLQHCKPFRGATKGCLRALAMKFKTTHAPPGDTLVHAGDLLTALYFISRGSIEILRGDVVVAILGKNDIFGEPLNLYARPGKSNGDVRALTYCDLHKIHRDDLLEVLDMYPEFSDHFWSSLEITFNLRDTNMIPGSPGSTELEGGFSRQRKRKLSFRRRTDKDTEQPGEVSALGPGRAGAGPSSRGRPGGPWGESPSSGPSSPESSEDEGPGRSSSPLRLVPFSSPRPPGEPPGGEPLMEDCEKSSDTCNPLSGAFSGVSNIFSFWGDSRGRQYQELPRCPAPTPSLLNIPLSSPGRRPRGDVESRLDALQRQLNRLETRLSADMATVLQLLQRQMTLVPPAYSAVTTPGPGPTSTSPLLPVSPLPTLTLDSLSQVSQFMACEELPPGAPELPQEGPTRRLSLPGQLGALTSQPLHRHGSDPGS
Chain of Cytochrome P450 2C9 (P11712 whole entry): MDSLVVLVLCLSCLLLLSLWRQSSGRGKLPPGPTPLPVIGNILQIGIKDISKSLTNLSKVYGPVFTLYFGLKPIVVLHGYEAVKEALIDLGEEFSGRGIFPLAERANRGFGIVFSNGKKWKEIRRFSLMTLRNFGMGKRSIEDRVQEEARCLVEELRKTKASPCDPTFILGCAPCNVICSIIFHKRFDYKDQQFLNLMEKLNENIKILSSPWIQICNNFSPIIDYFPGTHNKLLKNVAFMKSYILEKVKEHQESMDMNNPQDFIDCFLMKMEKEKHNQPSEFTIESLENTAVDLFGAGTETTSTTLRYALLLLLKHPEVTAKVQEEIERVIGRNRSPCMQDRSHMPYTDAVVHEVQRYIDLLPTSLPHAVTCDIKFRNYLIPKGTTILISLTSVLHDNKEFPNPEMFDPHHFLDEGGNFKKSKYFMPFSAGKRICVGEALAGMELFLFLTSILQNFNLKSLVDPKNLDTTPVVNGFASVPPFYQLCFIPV

Take `CCCSc1nc(N[C@@H]2C[C@H]2c2ccc(F)c(F)c2)c2nnn(C3[C@H](O)[C@H](O)[C@@H](O)[C@H]3O)c2n1` (some centres undefined): the Vd/F in series [1] came to 217 L/kg. In addition, the AUC (in general, the area under the concentration-time curve, a measure of exposure) in series [2] was determined as 146 ng·h/mL. Besides, the half-life (in general, how long it takes for the measured level to halve) in series [3] was 1.7 h. Moreover, the highest level in [4] (Cmax) was 55.4 ng/mL. The CL/F (in general, clearance divided by bioavailability, as obtained after extravascular dosing) in series [5] was 2200 mL/min/kg.

Take `CCCSc1nc(N[C@@H]2C[C@H]2c2ccc(Cl)s2)c2nnn([C@@H]3C[C@H](OCCO)[C@@H](O)[C@H]3O)c2n1`: the Vd/F in [1] stood at 206 L/kg. In series [2], this molecule displayed an area under the curve (AUC) of 64.4 ng·h/mL. In addition, in series [3], the half-life is 3.35 h. Further, in series [4], the Cmax (usually the peak of the concentration-time curve) turned out to be 28.7 ng/mL. The apparent clearance CL/F in series [5] was 712 mL/min/kg.

In the case of `CCCSc1nc(N[C@@H]2C[C@H]2c2ccc(F)c(F)c2)c2nnn([C@H]3[C@H](O)[C@H](O)[C@]4(CO)C[C@H]34)c2n1`, in series [6], the inhibition (commonly how much of the control response was suppressed) came to 0%.

In the case of `CCCSc1nc(N[C@@H]2C[C@H]2c2ccc(F)c(F)c2)c2nnn([C@H]3[C@H](O)[C@H](O)[C@@H](O)[C@H]3F)c2n1`, the midpoint of inhibition against Cytochrome P450 2C9, the IC50, lay at 8.82 µM. Also, the “inhibition (INH)” value in series [7] and in [20] was “Not Active” in each case. For the same molecule, the Vd/F in series [1] is 43.4 L/kg; in series [12], 6.26 L/kg. The AUC in series [2] came out at 1200 ng·h/mL; in series [14], 469 ng·h/mL. Moreover, the half-life is 1.94 h in series [8] and 3.56 h in series [3]. The Cmax in series [4] was determined as 303 ng/mL; in [21], 110 ng/mL. Moreover, the Activity in the series on Rattus norvegicus [9] is 1.75 mL; with Rattus norvegicus [10], below 0.5 mL; with Rattus norvegicus [16], 0.9 mL; in the series with Rattus norvegicus [17], below 0.5 mL; in the series on Rattus norvegicus [18], below 0.5 mL. In addition, the CL/F in series [5] is 139 mL/min/kg; in series [15], 36.7 mL/min/kg. For the same molecule, the Time in the series with Rattus norvegicus [11] is listed as 8.59 min; with Rattus norvegicus [19] it was 9.76 min; in the series with Rattus norvegicus [22] it was above 30 min; in the series on Rattus norvegicus [23], 10.67 min; in the series with Rattus norvegicus [24], above 30 min. Besides, the inhibition in vivo – broadly, the drop in the measured response relative to a control, in per cent – at 2.5 mg/kg in the series on Rattus norvegicus [13] came out at 95%.

Regarding `CCCSc1nc(N[C@@H]2C[C@H]2c2ccc(F)c(F)c2)c2nnn([C@@H]3C[C@H](F)[C@@H](O)[C@H]3O)c2n1`, the Vd/F in [1] amounted to 27.1 L/kg; in series [12], 88.4 L/kg. Also, the area under the curve (AUC) in series [2] came out at 1270 ng·h/mL; in [14], 24.3 ng·h/mL. The half-life is 1.21 h in series [8] and 2.33 h in [3]. In addition, the peak concentration (Cmax) was determined as 195 ng/mL in series [4] and 8.29 ng/mL in series [21]. The apparent clearance CL/F in series [5] is 137 mL/min/kg; in series [15], 865 mL/min/kg.

Regarding `CCCSc1nc(N[C@@H]2C[C@H]2c2ccc(F)c(F)c2)c2nnn([C@@H]3C[C@H](OCCO)[C@@H](O)[C@H]3O)c2n1` [TICAGRELOR], the Vd/F is 24.2 L/kg in [1] and 5.76 L/kg in [12]. Moreover, the area under the curve (AUC) amounted to 1400 ng·h/mL in series [2] and 504 ng·h/mL in series [14]. Also, the half-life in series [8] is 2.03 h; in series [3] it was 2.23 h. In addition, the peak concentration (Cmax) was found to be 267 ng/mL in [4] and 125 ng/mL in [21]. Besides, the figures for the CL/F in series [5] and in series [15] were 133 mL/min/kg and 32.8 mL/min/kg, respectively. Also, in the series on Rattus norvegicus [13], testing at 2.5 mg/kg gave an inhibition in vivo of 59%. For the same molecule, the Activity with Rattus norvegicus [17] turned out to be 0.5 mL. For the same molecule, in the series with Rattus norvegicus [19], the Time is given as above 30 min.

For `CCCSc1nc(NC2Cc3ccccc3C2)c2nnn([C@@H]3C[C@H](OCCO)[C@@H](O)[C@H]3O)c2n1`, in [6], the inhibition was found to be 0%.

As for `CCCSc1nc(N[C@@H]2C[C@H]2c2ccc(F)c(F)c2)c2nnn([C@@H]3C[C@H](OCCOCCO)[C@@H](O)[C@H]3O)c2n1`, the inhibition in [6] stood at 0%.

`CCCSc1nc(N[C@@H]2C[C@H]2c2ccc(F)c(F)c2)c2nnn([C@@H]3C[C@H](OCC(O)CO)[C@@H](O)[C@H]3O)c2n1` (mixture of isomers): the Vz/F in the series on Rattus norvegicus [25] is 1513 L/kg. The AUC in series [2] came to 13.8 ng·h/mL. The same molecule had a half-life in series [3] of 1.72 h. In [4], this molecule yielded a Cmax of 3.89 ng/mL.

With `CCCSc1nc(N[C@@H]2C[C@H]2c2ccc(F)c(F)c2)c2nnn([C@H]3[C@H](O)[C@H](O)[C@@H](OCCO)[C@H]3F)c2n1`, the Vd/F in [1] worked out at 82.4 L/kg; in [12] it was 15.4 L/kg. Also, the AUC in series [2] worked out at 512 ng·h/mL; in series [14], 218 ng·h/mL. Moreover, the results for the half-life in [8] and in series [3] were 2.46 h and 2.83 h, respectively. In addition, the values for the Cmax in [4] and in [21] were 127 ng/mL and 55.6 ng/mL, respectively. The apparent clearance CL/F in [5] is 350 mL/min/kg; in series [15], 72.3 mL/min/kg.
